The compounds below were run against T1, human GPR119 (Homo sapiens, UniProt Q8TDV5) (assay: AlphaScreen cAMP assay in Min-6/hGPR119 cells (activation of GPR119, intracellular cAMP)). Settings: MIN6 cells stably transfected with human GPR119; cAMP by AlphaScreen after 45 minutes incubation at room temperature.
T1 construct: expression vector for human GPR119 cDNA (Acc. No. NP_848566); expressed in transfected cells
T1 sequence (Q8TDV5 1-335): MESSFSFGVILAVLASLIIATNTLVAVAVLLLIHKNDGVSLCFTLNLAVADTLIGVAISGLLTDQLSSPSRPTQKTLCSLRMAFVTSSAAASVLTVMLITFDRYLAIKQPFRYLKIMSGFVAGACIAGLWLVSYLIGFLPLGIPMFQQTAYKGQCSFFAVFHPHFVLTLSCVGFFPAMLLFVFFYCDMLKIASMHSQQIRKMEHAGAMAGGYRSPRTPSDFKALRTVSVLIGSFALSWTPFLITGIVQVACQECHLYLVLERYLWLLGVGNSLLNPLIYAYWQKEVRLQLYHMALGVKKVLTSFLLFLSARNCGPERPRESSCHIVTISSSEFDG
Format: cell-based
Procedure, shortened: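 MIN6 cells stably expressing human GPR119, seeded 24 h before treatment; compounds applied 45 min at ~20 °C in Hepes-buffered saline pH 7.4 with 0.5 mM IBMX, 0.1% BSA, 1% DMSO final. Intracellular cAMP measured by AlphaScreen.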

EC50	Compound
34 nM	CC(C)OC(=O)N1CCC(C2Cc3cc(-c4ccc(C(=O)NCc5ccccn5)cc4)ccc3O2)CC1 (stereo not drawn) [Example 157]
235 nM	CC(C)OC(=O)N1CCC(C2Cc3cc(-c4ccc(CC(=O)NCc5ccccn5)cc4)ccc3O2)CC1 (stereo not drawn) [Example 158]
25 nM	CC(C)OC(=O)N1CCC(C2Cc3cc(-c4ccc(C(=O)N(C)CC#N)cc4)ccc3O2)CC1 (stereo not drawn) [Example 159]
31 nM	CC(C)OC(=O)N1CCC(C2Cc3cc(-c4ccc(CC(=O)N(C)CC#N)cc4)ccc3O2)CC1 (stereo not drawn) [Example 160]
26 nM	CC(=O)Nc1ccc(-c2ccc3c(c2)CC(C2CCN(C(=O)OC(C)C)CC2)O3)cn1 (stereo not drawn) [Example 161, 4-[5-(6-Acetylamino-pyridin-3-yl)-2,3-dihydro-benzofuran-2-yl]-piperidine-1-carboxylic acid isopropyl ester]
483 nM	CC(=O)Nc1ccc(-c2ccc3c(c2)CC(C2CCN(C(=O)OC(C)C)CC2)O3)nn1 (stereo not drawn) [Example 162, 4-[5-(6-Acetylamino-pyridazin-3-yl)-2,3-dihydro-benzofuran-2-yl]-piperidine-1-carboxylic acid isopropyl ester]
296 nM	CC(=O)Nc1ccc(-c2ccc3c(c2)CC(C2CCN(C(=O)OC(C)C)CC2)O3)c(C)n1 (stereo not drawn) [Example 163]
89 nM	CC(=O)Nc1ccc(-c2ccc3c(c2)CC(C2CCN(C(=O)OC(C)C)CC2)O3)cc1 (stereo not drawn) [Example 164]
1840 nM	Cc1c(-c2ccc3c(c2)CC(C2CCN(C(=O)OC(C)C)CC2)O3)cnn1C (stereo not drawn) [Example 165]
190 nM	CC(C)OC(=O)N1CCC(C2Cc3cc(-c4cncs4)ccc3O2)CC1 (stereo not drawn) [Example 166]
845 nM	COc1cnnc(-c2ccc3c(c2)CC(C2CCN(C(=O)OC(C)C)CC2)O3)c1 (stereo not drawn) [Example 167]
1910 nM	CC(C)OC(=O)N1CCC(C2Cc3cc(-c4cnn(C)c4)ccc3O2)CC1 (stereo not drawn) [Example 168]
3140 nM	CC(=O)Nc1cc(-c2ccc3c(c2)CC(C2CCN(C(=O)OC(C)C)CC2)O3)ccc1C (stereo not drawn) [Example 169]
62 nM	CC(C)OC(=O)N1CCC(C2Cc3cc(-c4ccc(C#N)s4)ccc3O2)CC1 (stereo not drawn) [Example 170]
582 nM	Cc1nn(C)cc1-c1ccc2c(c1)CC(C1CCN(C(=O)OC(C)C)CC1)O2 (stereo not drawn) [Example 171]
288 nM	CC(C)OC(=O)N1CCC(C2Cc3cc(-c4ccc(CN(C)S(C)(=O)=O)cc4)ccc3O2)CC1 (stereo not drawn) [Example 172]
373 nM	CC(C)OC(=O)N1CCC(C2Cc3cc(-c4cnc(NC(=O)C(C)(C)C)s4)ccc3O2)CC1 (stereo not drawn) [Example 173]
610 nM	CNc1ncc(-c2ccc3c(c2)CC(C2CCN(C(=O)OC(C)C)CC2)O3)cn1 (stereo not drawn) [Example 174]
3310 nM	COc1cnc(-c2ccc3c(c2)CC(C2CCN(C(=O)OC(C)C)CC2)O3)nc1 (stereo not drawn) [Example 175]
489 nM	CC(C)OC(=O)N1CCC(C2Cc3cc(-c4cnccn4)ccc3O2)CC1 (stereo not drawn) [Example 176]
201 nM	CC(=O)Nc1ncc(-c2ccc3c(c2)CC(C2CCN(C(=O)OC(C)C)CC2)O3)s1 (stereo not drawn) [Example 177]
1200 nM	CC(=O)Nc1nc(C)c(-c2ccc3c(c2)CC(C2CCN(C(=O)OC(C)C)CC2)O3)s1 (stereo not drawn) [Example 178]
118 nM	COc1cc(-c2ccc3c(c2)CC(C2CCN(C(=O)OC(C)C)CC2)O3)ccc1NC(C)=O (stereo not drawn) [Example 179]

Further lines, the compound ahead of its results:

Compound	EC50
CC(C)OC(=O)N1CCC(C2Cc3cc(-c4ccc(C(=O)N5CC(F)(F)C5)cc4)ccc3O2)CC1 (stereo not drawn) [Example 135]	38 nM
CC(C)OC(=O)N1CCC(C2Cc3cc(-c4ccc(CC(=O)N5CC(F)(F)C5)cc4)ccc3O2)CC1 (stereo not drawn) [Example 136]	11 nM
CC(C)OC(=O)N1CCC(C2Cc3cc(-c4ccc(C(=O)NCC5COCCO5)cc4)ccc3O2)CC1 (stereo not drawn) [Example 137]	51 nM
CC(C)OC(=O)N1CCC(C2Cc3cc(-c4ccc(CC(=O)NCC5COCCO5)cc4)ccc3O2)CC1 (stereo not drawn) [Example 138]	277 nM
CC(C)OC(=O)N1CCC(C2Cc3cc(-c4ccc(C(=O)N(C)C5CCCOC5)cc4)ccc3O2)CC1 (stereo not drawn) [Example 139]	52 nM
CC(C)OC(=O)N1CCC(C2Cc3cc(-c4ccc(CC(=O)N(C)C5CCCOC5)cc4)ccc3O2)CC1 (stereo not drawn) [Example 140]	63 nM
CC(C)OC(=O)N1CCC(C2Cc3cc(-c4ccc(C(=O)NCc5cocn5)cc4)ccc3O2)CC1 (stereo not drawn) [Example 141]	40 nM
CC(C)OC(=O)N1CCC(C2Cc3cc(-c4ccc(CC(=O)NCc5cocn5)cc4)ccc3O2)CC1 (stereo not drawn) [Example 142]	208 nM
CC(C)OC(=O)N1CCC(C2Cc3cc(-c4ccc(C(=O)N5CCC(C)(O)C5)cc4)ccc3O2)CC1 (stereo not drawn) [Example 143]	94 nM
CC(C)OC(=O)N1CCC(C2Cc3cc(-c4ccc(CC(=O)N5CCC(C)(O)C5)cc4)ccc3O2)CC1 (stereo not drawn) [Example 144]	110 nM
COC1CN(C(=O)c2ccc(-c3ccc4c(c3)CC(C3CCN(C(=O)OC(C)C)CC3)O4)cc2)C1 (stereo not drawn) [Example 145]	38 nM
COC1CN(C(=O)Cc2ccc(-c3ccc4c(c3)CC(C3CCN(C(=O)OC(C)C)CC3)O4)cc2)C1 (stereo not drawn) [Example 146]	65 nM
CC(C)OC(=O)N1CCC(C2Cc3cc(-c4ccc(C(=O)NCCC(C)(C)O)cc4)ccc3O2)CC1 (stereo not drawn) [Example 147]	113 nM
CC(C)OC(=O)N1CCC(C2Cc3cc(-c4ccc(CC(=O)NCCC(C)(C)O)cc4)ccc3O2)CC1 (stereo not drawn) [Example 148]	98 nM
CC(C)OC(=O)N1CCC(C2Cc3cc(-c4ccc(C(=O)N5CCOCC5)cc4)ccc3O2)CC1 (stereo not drawn) [Example 149]	9 nM
CC(C)OC(=O)N1CCC(C2Cc3cc(-c4ccc(CC(=O)N5CCOCC5)cc4)ccc3O2)CC1 (stereo not drawn) [Example 150]	62 nM
CC(C)OC(=O)N1CCC(C2Cc3cc(-c4ccc(C(=O)NCC(C)(C)CO)cc4)ccc3O2)CC1 (stereo not drawn) [Example 151]	47 nM
CC(C)OC(=O)N1CCC(C2Cc3cc(-c4ccc(CC(=O)NCC(C)(C)CO)cc4)ccc3O2)CC1 (stereo not drawn) [Example 152]	153 nM
CC(C)OC(=O)N1CCC(C2Cc3cc(-c4ccc(C(=O)NCC5CCCO5)cc4)ccc3O2)CC1 (stereo not drawn) [Example 153]	17 nM
CC(C)OC(=O)N1CCC(C2Cc3cc(-c4ccc(CC(=O)NCC5CCCO5)cc4)ccc3O2)CC1 (stereo not drawn) [Example 154]	98 nM
CC(C)OC(=O)N1CCC(C2Cc3cc(-c4ccc(C(=O)N(C)CCO)cc4)ccc3O2)CC1 (stereo not drawn) [Example 155]	82 nM
CC(C)OC(=O)N1CCC(C2Cc3cc(-c4ccc(CC(=O)N(C)CCO)cc4)ccc3O2)CC1 (stereo not drawn) [Example 156]	132 nM

From patent US8669271B2 (Boehringer Ingelheim International GmbH, priority 2010, dated 2014)
